This is an account of results in ChEMBL document CHEMBL1142849, “Synthesis and in vitro and in vivo antimycobacterial activity of isonicotinoyl hydrazones” (Bioorg Med Chem Lett, 2005).

Converted amounts (≈) assume the structure as drawn.

Experiment [1] concerns Mycobacterium tuberculosis. The experiment is described as follows: In vitro minimal inhibitory concentration against Mycobacterium tuberculosis [H37Rv stain]. It is filed as functional.
The subject of experiment [2] is Mycobacterium tuberculosis. The experiment is described as follows: In vitro inhibitory concentration against Mycobacterium tuberculosis [H37Rv stain]. In kind it is functional, organism-based.
The test system of experiment [3] is Mycobacterium tuberculosis. Briefly: Log CFU in lungs of mice infected with H37Rv stain of Mycobacterium tuberculosis after administration at 25 mg/Kg. It is filed as functional, Lung.

As usually defined, the MIC is the least concentration at which growth counts as inhibited. Read a low MIC as greater potency. The term IC50 denotes the midpoint of a concentration-inhibition curve. High values mean lower potency, low ones higher potency. Consider `C/C(=N/NC(=O)c1ccncc1)c1cccc(CN2CCN(c3ccc(F)cc3)CC2)c1O`, for which the MIC in experiment [1] worked out at 0.87 µM (≈ 0.389 µg/mL). Also, in experiment [2], the IC50 was > 14 µM.

In experiment [1], `C/C(=N/NC(=O)c1ccncc1)c1cccc(CN(Cc2ccccc2)Cc2ccccc2)c1O` showed an MIC of 3.36 µM (≈ 1.56 µg/mL). Moreover, the IC50 in experiment [2] is > 13.5 µM.

In experiment [1], `CCn1cc(C(=O)O)c(=O)c2cc(F)c(N3CCN(Cc4cccc(/C(C)=N\NC(=O)c5ccncc5)c4O)C(C)C3)c(F)c21` (centres undefined) returned an MIC of 1.26 µM (≈ 0.779 µg/mL). Also, the IC50 in experiment [2] is > 10.1 µM.

In turn, `C/C(=N/NC(=O)c1ccncc1)c1cccc(CN2CCN(c3ccccn3)CC2)c1O` displayed an MIC in experiment [1] of 0.9 µM (≈ 0.387 µg/mL). Besides, the IC50 in experiment [2] was > 14.5 µM.

The compound `C/C(=N/NC(=O)c1ccncc1)c1cccc(CN2CCCCC2)c1O` showed an MIC in experiment [1] of 4.43 µM (≈ 1.56 µg/mL). Further, the IC50 in experiment [2] was > 17.7 µM.

`C/C(=N/NC(=O)c1ccncc1)c1cccc(CN(c2ccccc2)c2ccccc2)c1O` showed an MIC in experiment [1] of 3.57 µM (≈ 1.56 µg/mL). Further, the IC50 in experiment [2] was > 14.3 µM.

Regarding `C/C(=N/NC(=O)c1ccncc1)c1cccc(CN2CCNCC2)c1O`, in experiment [3], the “Log CFU” value is 6.08. The MIC in experiment [1] is 0.56 µM (≈ 0.198 µg/mL). Further, the IC50 in experiment [2] was > 17.7 µM.

With `CCCCN(CCCC)Cc1cccc(/C(C)=N\NC(=O)c2ccncc2)c1O`, the MIC in experiment [1] is 3.93 µM (≈ 1.56 µg/mL). Also, the IC50 in experiment [2] was > 15.8 µM.

Consider `C/C(=N/NC(=O)c1ccncc1)c1cccc(CN2CCCC2)c1O`, for which 4.61 µM (≈ 1.56 µg/mL) was the least that counted as inhibitory in experiment [1] (MIC). Besides, the IC50 in experiment [2] was > 18.5 µM.

Consider `C/C(=N/NC(=O)c1ccncc1)c1cccc(CN2CCN(C)CC2)c1O`, for which 8.61 µM (≈ 3.16 µg/mL) was the least that counted as inhibitory in experiment [1] (MIC). The IC50 in experiment [2] is > 17.2 µM.

Compound `CCN(CC)Cc1cccc(/C(C)=N\NC(=O)c2ccncc2)c1O` gave an MIC in experiment [1] of 2.29 µM (≈ 0.78 µg/mL). Besides, the IC50 in experiment [2] was > 18.4 µM.

Regarding `C/C(=N/NC(=O)c1ccncc1)c1cccc(CN2CCN(c3cc4c(cc3F)c(=O)c(C(=O)O)cn4C3CC3)CC2)c1O`, the minimal inhibitory concentration (MIC) in experiment [1] stood at 1.3 µM (≈ 0.778 µg/mL). Also, the IC50 in experiment [2] was > 10.4 µM.

In experiment [1], `C/C(=N/NC(=O)c1ccncc1)c1cccc(CN2CCOCC2)c1O` yielded an MIC of 2.2 µM (≈ 0.78 µg/mL). In addition, the IC50 in experiment [2] is > 17.6 µM.

For the compound `C/C(=N/NC(=O)c1ccncc1)c1cccc(CN2CCN(Cc3ccccc3)CC2)c1O`, in experiment [1], the MIC came to 0.88 µM (≈ 0.39 µg/mL). Also, in experiment [2], the IC50 was > 14.1 µM.

In experiment [1], `C/C(=N/NC(=O)c1ccncc1)c1cccc(CN(C)C)c1O` registered an MIC of 2.49 µM (≈ 0.778 µg/mL). Besides, in experiment [2], the IC50 is > 20 µM.

For the compound `NNC(=O)c1ccncc1` [ISONIAZID], in experiment [3], the “Log CFU” value is reported as 6.38. For the same compound, inhibition of growth in experiment [1] (MIC) required 2.04 µM (≈ 0.28 µg/mL). Further, the IC50 in experiment [2] is > 45.6 µM.
